As a reminder, the IC50 is the concentration that gives 50% inhibition. Read a high IC50 as a need for much substance.

This note sets out measurements from patent publication US10526337B2, “Heteroaryl derivative or pharmaceutically acceptable salt thereof, preparation method therefor, and pharmaceutical composition for preventing or treating diseases associated with PI3 kinases, containing same as active ingredient” (KOREA RESEARCH INSTITUTE OF CHEMICAL TECHNOLOGY, priority 2015, dated 2020).

The target in assay [1] is T1, PI3 Kinase (p120γ) (h) (Homo sapiens, UniProt P48736).
T1 construct: endogenous in cells; host or cells: RAW264.7
Kind of assay: Inhibition of phosphatidylinositol 3-kinase gamma (PI3K γ), pAkt Western blotting in C5a-stimulated RAW264.7 macrophages. It is filed as cell-based, mouse. The settings on record: ATP=10 uM, sample concentration=100 nM. The procedure:
(§1) The stimulated cells were transferred in a 1.5 mL tube, followed by centrifugation at 3000 rpm for 1 minute. 100 μL of RIPA buffer (radioimmunoprecipitation assay buffer, 50 mM Tris-HCl, 5 mM EDTA, 150 mM NaCl, 1% NP-40, 1 mM PMSF, pH 8.0; ELPIS, Korea) was added thereto, which was stored in a 4° C. refrigerator for 12 hours. Centrifugation was performed at 4° C. at 14,000 rpm for 20 minutes. The supernatant was transferred into a new 1.5 mL tube. Protein was quantified by BCA (bicinchoninic acid) method and samples were prepared. The composition of the sample was as follows: sample buffer (ELPIS, EBA-1052) 5×, protein 10 μg, and 1× sample buffer to make the total volume 20 μL. The sample was heated at 100° C. for 5 minutes. The evaporated water vapor was condensed in a refrigerator. The liquid stained on the wall was fallen down by centrifugation for a few seconds. The sample proceeded to 10% SDS (Sodium Dodecyl Sulfate) acrylamide gel for separation. The separated protein was transferred onto PVDF (poly-vinyl difluoride) membrane, followed by reaction with pAkt (phospho protein kinase B) antibody (Ser473 or Thr308; Cell signaling, 9271s or 13038s) for 12 hours at 4° C. The membrane was washed with TBST (Tris-Buffered Saline with Tween 20, 10 mM Tris-HCl, pH 7.5, 150 mM NaCl, 0.1% Tween-20) three times for 5 minutes each, to which the secondary antibody (rabbit antibody, Santacruz, sc-2004) was added, followed by reaction at room temperature for 2 hours. The membrane was washed with TBST three times for 10 minutes each, to which ECL (enhanced chemiluminescence, Thermo, NCI34095KR) was sprayed. Bands were investigated by using LAS-3000.
The inhibition of phosphatidylinositol 3 kinase gamma (PI3K γ) by those compounds prepared in Examples 1˜98 was investigated by the following experiment. The inhibition activity of each compound was measured in the following conditions: ATP=10 uM, and sample concentration=100 nM.
(§2) Macrophages (RAW264.7) cultured in DMEM (Dulbecco's Modified Eagle Medium, Hyclon, SH30243.01) supplemented with 10% fetal bovine serum (Hyclon, USA) were distributed in a 12-well plate at the density of 1,000,000 cells/well. The cells were stabilized in a 37° C. CO2 for 24 hours and then treated with each compound for 1 and half hours. The cells were treated with 10 ng/mL of C5a (complement component 5a, 10 μg/mL; R&D, 2150-C5) to increase the intracellular activity of PI3K gamma. 5 minutes later, the medium was discarded and the cells were washed with cold PBS (phosphate buffered saline, Gibco, 14190-250). PBS was then eliminated completely by using a pipette. Western blotting was performed according to the same manner as described in step 2 of Experimental Example 1 to evaluate the intracellular PI3K gamma activity.
A general note: In western blotting, separated proteins are transferred to a membrane and probed.

For assay [2], the target named is T2, PI3 Kinase (p110δ/p85α) (h) (Homo sapiens, UniProt O00329).
T2 construct: endogenous in cells; host or cells: Raji
Kind of assay: Inhibition of phosphatidylinositol 3-kinase delta (PI3K δ), pAkt Western blotting in IgM-stimulated Raji cells. It is filed as cell-based. The note with it: ATP=10 uM, sample concentration=100 nM. Here is the method:
as §1
The inhibition of phosphatidylinositol 3 kinase delta (PI3K δ) by those compounds prepared in Examples 1˜98 was investigated by the following experiment. The inhibition activity of each compound was measured in the following conditions: ATP=10 uM, and sample concentration=100 nM.
as §2, with “Raji cells” for “Macrophages (RAW264.7)”, “RPMI1640 (Hyclone, SH30027.02)” for “DMEM (Dulbecco's Modified Eagle Medium, Hyclon, SH30243.01)”, “0.25 μg/mL” for “10 ng/mL”, “IgM (immunoglobulin M, Southern Biotech, USA)” for “C5a (complement component 5a, 10 μg/mL; R&D, 2150-C5)”, “delta. 30” for “gamma. 5”, “delta” for “gamma”

T1 sequence (P48736 whole entry): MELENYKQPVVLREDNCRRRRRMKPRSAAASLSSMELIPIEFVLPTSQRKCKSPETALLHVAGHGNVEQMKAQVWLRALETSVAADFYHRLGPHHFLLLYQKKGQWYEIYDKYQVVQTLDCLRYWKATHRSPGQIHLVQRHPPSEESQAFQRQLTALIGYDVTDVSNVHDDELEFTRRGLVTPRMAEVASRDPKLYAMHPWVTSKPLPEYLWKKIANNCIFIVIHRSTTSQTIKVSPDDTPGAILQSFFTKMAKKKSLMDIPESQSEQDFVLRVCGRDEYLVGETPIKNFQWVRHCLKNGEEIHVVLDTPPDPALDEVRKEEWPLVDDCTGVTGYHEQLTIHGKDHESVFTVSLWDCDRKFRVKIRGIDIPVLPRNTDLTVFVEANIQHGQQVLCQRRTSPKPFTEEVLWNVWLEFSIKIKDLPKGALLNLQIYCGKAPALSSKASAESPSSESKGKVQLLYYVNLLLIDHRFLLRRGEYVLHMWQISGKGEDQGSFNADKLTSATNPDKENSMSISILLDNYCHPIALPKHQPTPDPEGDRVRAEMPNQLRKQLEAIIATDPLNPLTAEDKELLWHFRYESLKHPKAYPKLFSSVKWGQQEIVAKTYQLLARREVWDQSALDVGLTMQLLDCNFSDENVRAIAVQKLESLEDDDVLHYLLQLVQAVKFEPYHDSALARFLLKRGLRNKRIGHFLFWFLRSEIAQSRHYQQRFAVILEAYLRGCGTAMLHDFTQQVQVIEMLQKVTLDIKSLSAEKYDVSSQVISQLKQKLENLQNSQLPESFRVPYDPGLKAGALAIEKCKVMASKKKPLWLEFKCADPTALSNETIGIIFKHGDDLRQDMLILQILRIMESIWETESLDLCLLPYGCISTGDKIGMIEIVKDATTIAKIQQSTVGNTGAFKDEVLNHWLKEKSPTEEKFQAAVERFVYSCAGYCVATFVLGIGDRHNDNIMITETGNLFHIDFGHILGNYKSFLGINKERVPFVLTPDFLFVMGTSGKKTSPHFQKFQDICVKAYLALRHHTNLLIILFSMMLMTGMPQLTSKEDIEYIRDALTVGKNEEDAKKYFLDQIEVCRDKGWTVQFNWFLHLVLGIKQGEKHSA
T2 sequence (O00329 whole entry): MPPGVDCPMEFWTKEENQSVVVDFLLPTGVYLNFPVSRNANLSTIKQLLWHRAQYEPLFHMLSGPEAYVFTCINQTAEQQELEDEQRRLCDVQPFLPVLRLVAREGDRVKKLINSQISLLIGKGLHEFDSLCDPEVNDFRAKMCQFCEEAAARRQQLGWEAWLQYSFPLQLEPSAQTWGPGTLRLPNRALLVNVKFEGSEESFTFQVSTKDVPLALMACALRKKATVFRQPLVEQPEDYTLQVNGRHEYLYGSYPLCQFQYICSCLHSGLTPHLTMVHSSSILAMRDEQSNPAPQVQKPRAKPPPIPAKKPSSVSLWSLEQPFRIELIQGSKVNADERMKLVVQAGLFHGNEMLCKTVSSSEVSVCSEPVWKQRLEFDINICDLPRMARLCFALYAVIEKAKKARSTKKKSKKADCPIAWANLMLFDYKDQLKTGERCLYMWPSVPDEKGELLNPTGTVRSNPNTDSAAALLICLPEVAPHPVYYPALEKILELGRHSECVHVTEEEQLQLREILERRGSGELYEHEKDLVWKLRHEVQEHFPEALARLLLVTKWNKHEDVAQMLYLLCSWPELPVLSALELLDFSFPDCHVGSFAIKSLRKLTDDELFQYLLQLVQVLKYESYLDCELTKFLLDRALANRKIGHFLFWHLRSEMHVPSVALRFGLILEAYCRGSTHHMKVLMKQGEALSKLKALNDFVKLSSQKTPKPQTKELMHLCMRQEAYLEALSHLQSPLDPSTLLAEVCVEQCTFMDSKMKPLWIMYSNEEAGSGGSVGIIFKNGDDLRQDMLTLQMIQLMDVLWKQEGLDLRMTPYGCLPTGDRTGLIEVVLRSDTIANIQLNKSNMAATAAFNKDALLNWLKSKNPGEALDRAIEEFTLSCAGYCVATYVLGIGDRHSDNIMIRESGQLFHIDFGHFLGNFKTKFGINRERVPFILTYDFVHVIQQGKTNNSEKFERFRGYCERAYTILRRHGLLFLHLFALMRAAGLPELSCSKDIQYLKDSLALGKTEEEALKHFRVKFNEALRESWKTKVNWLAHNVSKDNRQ
T2 sequence (P27986 whole entry partner): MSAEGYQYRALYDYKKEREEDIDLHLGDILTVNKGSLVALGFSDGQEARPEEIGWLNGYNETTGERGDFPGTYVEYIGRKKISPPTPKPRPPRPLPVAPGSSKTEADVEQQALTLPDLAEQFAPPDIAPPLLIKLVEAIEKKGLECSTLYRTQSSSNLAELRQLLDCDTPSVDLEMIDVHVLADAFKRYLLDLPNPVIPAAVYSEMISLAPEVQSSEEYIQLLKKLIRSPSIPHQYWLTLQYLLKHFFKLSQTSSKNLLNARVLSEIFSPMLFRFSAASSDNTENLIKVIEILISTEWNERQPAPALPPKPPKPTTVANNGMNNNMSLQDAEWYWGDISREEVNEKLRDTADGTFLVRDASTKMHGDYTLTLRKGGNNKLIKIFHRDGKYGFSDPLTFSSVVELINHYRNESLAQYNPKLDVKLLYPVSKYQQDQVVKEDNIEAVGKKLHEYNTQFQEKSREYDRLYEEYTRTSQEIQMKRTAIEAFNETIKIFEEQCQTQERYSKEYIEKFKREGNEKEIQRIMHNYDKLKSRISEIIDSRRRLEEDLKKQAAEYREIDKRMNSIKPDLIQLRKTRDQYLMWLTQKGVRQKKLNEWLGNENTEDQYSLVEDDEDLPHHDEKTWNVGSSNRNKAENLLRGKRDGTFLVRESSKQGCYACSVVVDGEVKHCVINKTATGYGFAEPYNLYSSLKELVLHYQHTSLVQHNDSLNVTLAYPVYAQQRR

Take `O=c1nc[nH]c2ncnc(N3CCC[C@H]3c3cc4cccc(Cl)c4c(=O)n3-c3cccnc3)c12` [Example 75, (S)-5-(2-(8-chloro-1-oxo-2-(pyridine-3-yl)-1,2-dihydroisoquinoline-3-yl)pyrrolidine-1-yl)pyrimido[4,5-d]pyrimidine-4(1H)-one]: the IC50 in assay [1] was above 500 nM; in assay [2], 10 to 500 nM.

For `O=c1nc[nH]c2ncnc(N3CCC[C@H]3c3nc4cccc(Cl)c4c(=O)n3-c3cccnc3)c12` [Example 76, (S)-5-(2-(5-chloro-4-oxo-3-(pyridine-3-yl)-3,4-dihydroquinazoline-2-yl)pyrrolidine-1-yl)pyrimido[4,5-d]pyrimidine-4(1H)-one], the IC50 in assay [1] and in assay [2] was above 500 nM each time.

`O=c1nc[nH]c2ncnc(N3CCC[C@H]3c3nc4cccc(Cl)c4c(=O)n3-c3cccc(F)c3)c12` [Example 77, (S)-5-(2-(5-chloro-3-(3-fluorophenyl)-4-oxo-3,4-dihydroquinazoline-2-yl)pyrrolidine-1-yl)pyrimido[4,5-d]pyrimidine-4(1H)-one]: the IC50 in assay [1] and in assay [2] was above 500 nM throughout.

With `Cc1cccc(-n2c([C@@H]3CCCN3c3ncnc4[nH]cnc(=O)c34)nc3cccc(Cl)c3c2=O)c1` [Example 78, (S)-5-(2-(5-chloro-4-oxo-3-(m-tolyl)-3,4-dihydroquinazoline-2-yl)pyrrolidine-1-yl)pyrimido[4,5-d]pyrimidine-4(1H)-one], the half-inhibitory concentration (IC50) in assay [1] and in assay [2] was above 500 nM throughout.

With `O=c1nc[nH]c2ncnc(N3CCC[C@H]3c3nn4ccc(Cl)c4c(=O)n3-c3cccc(F)c3)c12` [Example 80, (S)-5-(2-(5-chloro-3-(3-fluorophenyl)-4-oxo-3,4-dihydropyrrolo[2,1-f][1,2,4]triazine-2-yl)pyrrolidine-1-yl)pyrimido[4,5-d]pyrimidine-4(1H)-one], the IC50 in assay [1] and in assay [2] was above 500 nM each time.

With `C[C@H](Nc1nc(N)nc2[nH]cnc(=O)c12)c1nc2cccc(Cl)c2c(=O)n1-c1ccccc1` [Example 81, (S)-7-amino-5-((1-(5-chloro-4-oxo-3-phenyl-3,4-dihydroquinazoline-2-yl)ethyl)amino)pyrimido[4,5-d]pyrimidine-4(1H)-one], the IC50 in assay [1] and in assay [2] was 10 to 500 nM each time.

Take `C[C@H](Nc1nc(N)nc2[nH]cnc(=O)c12)c1nc2cccc(Cl)c2c(=O)n1-c1cccnc1` [Example 82, (S)-7-amino-5-((1-(5-chloro-4-oxo-3-(pyridine-3-yl)-3,4-dihydroquinazoline-2-yl)ethyl)amino)pyrimido[4,5-d]pyrimidine-4(1H)-one]: the IC50 in assay [1] and in assay [2] was 10 to 500 nM throughout.

In the case of `C[C@H](Nc1nc(N)nc2[nH]cnc(=O)c12)c1nc2cccc(Cl)c2c(=O)n1-c1cccc(F)c1` [Example 83, (S)-7-amino-5-((1-(5-chloro-3-(3-fluorophenyl)-4-oxo-3,4-dihydroquinazoline-2-yl)ethyl)amino)pyrimido[4,5-d]pyrimidine-4(1H)-one], the IC50 in assay [1] and in assay [2] was above 500 nM throughout.

For `Cc1cccc(-n2c([C@H](C)Nc3nc(N)nc4[nH]cnc(=O)c34)nc3cccc(Cl)c3c2=O)c1` [Example 84, (S)-7-amino-5-((1-(5-chloro-4-oxo-3-(m-tolyl)-3,4-dihydroquinazoline-2-yl)ethyl)amino)pyrimido[4,5-d]pyrimidine-4(1H)-one], the IC50 in assay [1] and in assay [2] was 10 to 500 nM throughout.

Consider `C[C@H](Nc1nc(N)nc2[nH]cnc(=O)c12)c1nn2ccc(Cl)c2c(=O)n1-c1ccccc1` [Example 86, (S)-7-amino-5-((1-(5-chloro-4-oxo-3-phenyl-3,4-dihydropyrrolo[2,1-f][1,2,4]triazine-2-yl)ethyl)amino)pyrimido[4,5-d]pyrimidine-4(1H)-one], for which the IC50 in assay [1] and in assay [2] was 10 to 500 nM in each case.

In the case of `C[C@H](Nc1nc(N)nc2[nH]cnc(=O)c12)c1nn2ccc(Cl)c2c(=O)n1-c1cccc(F)c1` [Example 87, (S)-7-amino-5-((1-(5-chloro-3-(3-fluorophenyl)-4-oxo-3,4-dihydropyrrolo[2,1-f][1,2,4]triazine-2-yl)ethyl)amino)pyrimido[4,5-d]pyrimidine-4(1H)-one], the IC50 was 10 to 500 nM in assay [1] and below 10 nM in assay [2].

Regarding `CC[C@H](Nc1nc(N)nc2[nH]cnc(=O)c12)c1nc2cccc(F)c2c(=O)n1-c1ccccc1` [Example 89, (S)-7-amino-5-((1-(5-fluoro-4-oxo-3-phenyl-3,4-dihydroquinazoline-2-yl)propyl)amino)pyrimido[4,5-d]pyrimidine-4(1H)-one], the IC50 in assay [1] and in assay [2] was 10 to 500 nM throughout.

Take `Nc1nc(N2CCC[C@H]2c2nc3cccc(Cl)c3c(=O)n2-c2ccccc2)c2c(=O)nc[nH]c2n1` [Example 90, (S)-7-amino-5-(2-(5-chloro-4-oxo-3-phenyl-3,4-dihydroquinazoline-2-yl)pyrrolidine-1-yl)pyrimido[4,5-d]pyrimidine-4(1H)-one]: the concentration for half-maximal inhibition (IC50) in assay [1] and in assay [2] was above 500 nM each time.

With `Nc1nc(N2CCC[C@H]2c2nc3cccc(Cl)c3c(=O)n2-c2cccnc2)c2c(=O)nc[nH]c2n1` [Example 91, (S)-7-amino-5-(2-(5-chloro-4-oxo-3-(pyridine-3-yl)-3,4-dihydroquinazoline-2-yl)pyrrolidine-1-yl)pyrimido[4,5-d]pyrimidine-4(1H)-one], the IC50 in assay [1] and in assay [2] was above 500 nM in each case.

As to `Nc1nc(N2CCC[C@H]2c2nc3cccc(Cl)c3c(=O)n2-c2cccc(F)c2)c2c(=O)nc[nH]c2n1` [Example 92, (S)-7-amino-5-(2-(5-chloro-3-(3-fluorophenyl)-4-oxo-3,4-dihydroquinazoline-2-yl)pyrrolidine-1-yl)pyrimido[4,5-d]pyrimidine-4(1H)-one], the IC50 in assay [1] and in assay [2] was above 500 nM each time.

`Cc1cccc(-n2c([C@@H]3CCCN3c3nc(N)nc4[nH]cnc(=O)c34)nc3cccc(Cl)c3c2=O)c1` [Example 93, (S)-7-amino-5-(2-(5-chloro-4-oxo-3-(m-tolyl)-3,4-dihydroquinazoline-2-yl)pyrrolidine-1-yl)pyrimido[4,5-d]pyrimidine-4(1H)-one]: the IC50 in assay [1] and in assay [2] was above 500 nM throughout.

Take `Nc1nc(N2CCC[C@H]2c2cc3cccc(Cl)c3c(=O)n2-c2ccccc2)c2c(=O)nc[nH]c2n1` [Example 94, (S)-7-amino-5-(2-(8-chloro-1-oxo-2-phenyl-1,2-dihydroisoquinoline-3-yl)pyrrolidine-1-yl)pyrimido[4,5-d]pyrimidine-4(1H)-one]: the IC50 in assay [1] and in assay [2] was 10 to 500 nM in each case.

Take `Nc1nc(N2CCC[C@H]2c2nn3ccc(Cl)c3c(=O)n2-c2cccc(F)c2)c2c(=O)nc[nH]c2n1` [Example 96, (S)-7-amino-5-(2-(5-chloro-3-(3-fluorophenyl)-4-oxo-3,4-dihydropyrrolo[2,1-f][1,2,4]triazine-2-yl)pyrrolidine-1-yl)pyrimido[4,5-d]pyrimidine-4(1H)-one]: the IC50 in assay [1] and in assay [2] was above 500 nM in each case.

For `C[C@H](Nc1ncnc2c1C(=O)CCN2)c1cc2cccc(Cl)c2c(=O)n1-c1ccccc1` [Example 97, (S)-4-((1-(8-chloro-1-oxo-2-phenyl-1,2-dihydroisoquinoline-3-yl)ethyl)amino)-7,8-dihydropyrido[2,3-d]pyrimidine-5(6H)-one], the IC50 in assay [1] was 10 to 500 nM; in assay [2], below 10 nM.
